From ChEMBL document CHEMBL3797052 (Eur J Med Chem, 2016)

Test system: not listed separately
Test: Antiproliferative activity against human DU145 cells assessed as growth inhibition after 48 hrs by sulforhodamine B assay
Format: functional
Conditions: DU-145, 48 h
Compound `CNC(=O)c1cc(Oc2ccc3nc(NC(=O)c4cc(C(F)(F)F)cc(C(F)(F)F)c4)sc3c2)ccn1` has a GI50 of 3.69 µM and a TGI of 15.9 µM.

Same assay, conditions: DU-145, 48 h, read-out: LC50 (the source's name)
For `CNC(=O)c1cc(Oc2ccc3nc(NC(=O)c4cc(C(F)(F)F)cc(C(F)(F)F)c4)sc3c2)ccn1`, the CC50 was 65 µM.

Test system: not listed separately
Test: Antiproliferative activity against human TK10 cells assessed as growth inhibition after 48 hrs by sulforhodamine B assay
Format: functional
Conditions: TK-10, 48 h
`CNC(=O)c1cc(Oc2ccc3nc(NC(=O)c4cc(C(F)(F)F)cc(C(F)(F)F)c4)sc3c2)ccn1` showed a GI50 of 3.37 µM and a TGI of 13.3 µM.

Same assay, conditions: TK-10, 48 h, read-out: LC50 (the source's name)
Work on `CNC(=O)c1cc(Oc2ccc3nc(NC(=O)c4cc(C(F)(F)F)cc(C(F)(F)F)c4)sc3c2)ccn1` yielded a CC50 of 74.9 µM.

Test system: ACHN
Test: Antiproliferative activity against human ACHN cells assessed as cell growth at 10^-6 M after 48 hrs by sulforhodamine B assay
Format: functional
Conditions: read-out: Activity
`CNC(=O)c1cc(Oc2ccc3nc(NC(=O)c4cc(C(F)(F)F)cc(C(F)(F)F)c4)sc3c2)ccn1` gave a growth at 1 µM of 96%.

Test system: not listed separately
Test: Antiproliferative activity against human UACC62 cells assessed as cell growth at 10^-8 M after 48 hrs by sulforhodamine B assay
Format: functional
Conditions: UACC-62, 48 h, read-out: Activity
`CNC(=O)c1cc(Oc2ccc3nc(NC(=O)c4cc(C(F)(F)F)cc(C(F)(F)F)c4)sc3c2)ccn1` showed a growth at 0.01 µM of 89%.

Test system: not listed separately
Test: Antiproliferative activity against human PC3 cells assessed as cell growth at 10^-4 M after 48 hrs by sulforhodamine B assay
Format: functional
Conditions: PC-3, 48 h, read-out: Activity
Work on `CNC(=O)c1cc(Oc2ccc3nc(NC(=O)c4cc(C(F)(F)F)cc(C(F)(F)F)c4)sc3c2)ccn1` yielded a growth at 100 µM of -42%.

Test system: SK-MEL-28
Test: Antiproliferative activity against human SK-MEL-28 cells assessed as cell growth at 10^-6 M after 48 hrs by sulforhodamine B assay
Format: functional
Conditions: SK-MEL-28, 48 h, read-out: Activity
`CNC(=O)c1cc(Oc2ccc3nc(NC(=O)c4cc(C(F)(F)F)cc(C(F)(F)F)c4)sc3c2)ccn1` showed a growth at 1 µM of 87%.

Test system: NCI-H460
Test: Antiproliferative activity against human NCI-H460 cells assessed as cell growth at 10^-4 M after 48 hrs by sulforhodamine B assay
Format: functional
Conditions: NCI-H460, 48 h, read-out: Activity
For `CNC(=O)c1cc(Oc2ccc3nc(NC(=O)c4cc(C(F)(F)F)cc(C(F)(F)F)c4)sc3c2)ccn1`, the growth at 100 µM was -69%.

Test system: U-251
Test: Antiproliferative activity against human U251 cells assessed as growth inhibition after 48 hrs by sulforhodamine B assay
Format: functional
Conditions: U-251, 48 h
In the case of `CNC(=O)c1cc(Oc2ccc3nc(NC(=O)c4cc(C(F)(F)F)cc(C(F)(F)F)c4)sc3c2)ccn1`, the GI50 is reported as 3.65 µM, the LC50 is reported as 53.6 µM and the TGI is reported as 13.7 µM.

Test system: NCI-H226
Test: Antiproliferative activity against human NCI-H226 cells assessed as cell growth at 10^-6 M after 48 hrs by sulforhodamine B assay
Format: functional
Conditions: NCI-H226, 48 h, read-out: Activity
Work on `CNC(=O)c1cc(Oc2ccc3nc(NC(=O)c4cc(C(F)(F)F)cc(C(F)(F)F)c4)sc3c2)ccn1` yielded a growth at 1 µM of 101%.

Test system: not listed separately
Test: Antiproliferative activity against human IGROV1 cells assessed as cell growth at 10^-4 M after 48 hrs by sulforhodamine B assay
Format: functional
Conditions: IGROV-1, 48 h, read-out: Activity
In the case of `CNC(=O)c1cc(Oc2ccc3nc(NC(=O)c4cc(C(F)(F)F)cc(C(F)(F)F)c4)sc3c2)ccn1`, the growth at 100 µM is reported as -35%.

Test system: not listed separately
Test: Antiproliferative activity against human BT549 cells assessed as growth inhibition after 48 hrs by sulforhodamine B assay
Format: functional
Conditions: BT-549, 48 h
In the case of `CNC(=O)c1cc(Oc2ccc3nc(NC(=O)c4cc(C(F)(F)F)cc(C(F)(F)F)c4)sc3c2)ccn1`, the GI50 is reported as 3.05 µM and the TGI is reported as 12.4 µM.

Same assay, conditions: BT-549, 48 h, read-out: LC50 (the source's name)
`CNC(=O)c1cc(Oc2ccc3nc(NC(=O)c4cc(C(F)(F)F)cc(C(F)(F)F)c4)sc3c2)ccn1` gave a CC50 greater than 100 µM.

Test system: not listed separately
Test: Antiproliferative activity against human SF539 cells assessed as cell growth at 10^-7 M after 48 hrs by sulforhodamine B assay
Format: functional
Conditions: SF-539, 48 h, read-out: Activity
In the case of `CNC(=O)c1cc(Oc2ccc3nc(NC(=O)c4cc(C(F)(F)F)cc(C(F)(F)F)c4)sc3c2)ccn1`, the growth at 0.1 µM is reported as 91%.

Test system: SN12C
Test: Antiproliferative activity against human SN12C cells assessed as cell growth at 10^-8 M after 48 hrs by sulforhodamine B assay
Format: functional
Conditions: read-out: Activity
For `CNC(=O)c1cc(Oc2ccc3nc(NC(=O)c4cc(C(F)(F)F)cc(C(F)(F)F)c4)sc3c2)ccn1`, the growth at 0.01 µM was 98%.

Test system: not listed separately
Test: Antiproliferative activity against human OVCAR4 cells assessed as cell growth at 10^-6 M after 48 hrs by sulforhodamine B assay
Format: functional
Conditions: OVCAR-4, 48 h, read-out: Activity
`CNC(=O)c1cc(Oc2ccc3nc(NC(=O)c4cc(C(F)(F)F)cc(C(F)(F)F)c4)sc3c2)ccn1` gave a growth at 1 µM of 89%.

Test system: not listed separately
Test: Antiproliferative activity against human HCC2998 cells assessed as growth inhibition after 48 hrs by sulforhodamine B assay
Format: functional
Conditions: HCC 2998, 48 h
In the case of `CNC(=O)c1cc(Oc2ccc3nc(NC(=O)c4cc(C(F)(F)F)cc(C(F)(F)F)c4)sc3c2)ccn1`, the GI50 is reported as 6.63 µM and the TGI is reported as 24.7 µM.

Same assay, conditions: HCC 2998, 48 h, read-out: LC50 (the source's name)
`CNC(=O)c1cc(Oc2ccc3nc(NC(=O)c4cc(C(F)(F)F)cc(C(F)(F)F)c4)sc3c2)ccn1` showed a CC50 of 79.4 µM.
